Measured values from patent US10316020B2, “Indane derivatives and the use thereof as soluble guanylate cyclase activators” (NOVARTIS AG, priority 2015, dated 2019).
Read-outs that look alike come from different tables or passages of the source.

Assays:
[1] = target: T1, soluble guanylate cyclase (GUCYA3/GUCYB3) overexpressed in CHO cells (Homo sapiens, UniProt Q02108+Q02153); experiment: CHO cellular assay (cGMP production, HTRF); format: cell-based
T1 construct: expressed in transfected cells
T1 sequence (Q02108 1-690 partner): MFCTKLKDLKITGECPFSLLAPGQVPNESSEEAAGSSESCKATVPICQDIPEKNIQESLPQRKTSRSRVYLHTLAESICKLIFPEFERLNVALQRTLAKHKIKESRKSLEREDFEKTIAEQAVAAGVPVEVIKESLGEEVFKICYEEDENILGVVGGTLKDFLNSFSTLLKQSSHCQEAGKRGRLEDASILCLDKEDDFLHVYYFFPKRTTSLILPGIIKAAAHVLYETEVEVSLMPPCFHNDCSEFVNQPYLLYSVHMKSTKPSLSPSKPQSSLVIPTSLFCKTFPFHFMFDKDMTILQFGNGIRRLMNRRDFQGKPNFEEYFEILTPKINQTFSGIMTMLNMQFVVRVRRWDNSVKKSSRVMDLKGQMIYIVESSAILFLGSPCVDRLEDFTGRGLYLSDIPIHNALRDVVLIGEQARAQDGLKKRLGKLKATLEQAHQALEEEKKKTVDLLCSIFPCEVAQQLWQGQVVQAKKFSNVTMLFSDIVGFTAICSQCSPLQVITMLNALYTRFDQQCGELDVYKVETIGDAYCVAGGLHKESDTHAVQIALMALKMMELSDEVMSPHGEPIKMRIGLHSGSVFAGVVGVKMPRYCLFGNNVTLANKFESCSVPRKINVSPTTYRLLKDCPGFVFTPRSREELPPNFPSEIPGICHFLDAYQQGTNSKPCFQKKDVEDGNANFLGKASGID
T1 sequence (Q02153 1-619): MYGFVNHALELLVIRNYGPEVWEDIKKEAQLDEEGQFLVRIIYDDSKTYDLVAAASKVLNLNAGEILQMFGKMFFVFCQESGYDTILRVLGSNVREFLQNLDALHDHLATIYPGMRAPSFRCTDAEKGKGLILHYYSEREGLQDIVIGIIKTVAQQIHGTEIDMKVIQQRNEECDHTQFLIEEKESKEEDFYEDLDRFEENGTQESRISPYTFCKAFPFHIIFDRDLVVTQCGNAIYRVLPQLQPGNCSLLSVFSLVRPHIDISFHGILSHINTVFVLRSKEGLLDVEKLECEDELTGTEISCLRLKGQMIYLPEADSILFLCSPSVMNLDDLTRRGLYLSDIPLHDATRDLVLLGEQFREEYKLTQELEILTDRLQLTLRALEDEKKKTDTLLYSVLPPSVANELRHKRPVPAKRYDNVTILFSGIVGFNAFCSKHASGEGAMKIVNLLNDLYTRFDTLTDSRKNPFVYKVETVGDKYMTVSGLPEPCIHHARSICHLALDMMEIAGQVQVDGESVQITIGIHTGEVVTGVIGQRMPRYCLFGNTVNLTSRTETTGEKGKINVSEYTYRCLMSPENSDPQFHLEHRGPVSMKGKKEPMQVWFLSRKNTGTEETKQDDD
Text: Chinese hamster ovary (CHO) cells overexpressing soluble guanylate cyclase were generated to test the effect of sGC activators in a cellular context. Human cDNAs for GUCYA3 (RefSeq: NM_000856.3) and GUCYB3 (RefSeq: NM_000857.1) were amplified by PCR from a HUVEC (Human Umbilical Vein Endothelial Cells) cDNA library and cloned into mammalian expression vectors. CHO K1 cells (ATCC CCL-61) were transfected using Lipofectamine 2000 following manufacturer's instructions and stably expressing clones were identified by antibiotic selection. CHO GUCY clone 8E10 was used for subsequent experiments.
Cells were seeded at a density of 3000 cells/well in white 384-well proxyplates (Perkin Elmer) and incubated overnight, then the medium was removed and cells were washed with assay buffer (HBSS, 0.1% BSA, 1 mM IBMX, 20 uM ODQ). sGC activators were serially diluted in DMSO, then diluted in assay buffer prior to adding to cells (10 ul/well, final DMSO concentration 0.5%). Cells were incubated with compounds for 1 h at room temperature, then assayed for cGMP production using Cisbio cGMP HTRF kit (62GM2PEC) according to manufacturer's instructions.
The EC50s are calculated based on the amount of cGMP interpolated from the standard curve, using a 4-parameter sigmoidal dose-response.
Compounds of invention are active on sGC activation. Data in Table 1 collected using the assay of Biological Example 1.

[2] = Pharmacokinetic clearance in intravenously dosed rats; format: in vivo; settings: male, Sprague-Dawley, rat, whole blood, iv, 0.5 mg/kg
Procedure: Sprague-Daley rats were administered sGC activators intravenously to assess the systemic clearance rates of the compounds from blood by non-compartmental analysis. Compounds with high clearance rates may be less prone to exert unwanted systemic (non-local) pharmocoligcal effects, which may be a benefical property for a compound intended to be dosed via topical ocular administration with the aim of exerting a pharmacological reponse locally in the eye.
In order to assess the pharmacokinetic parameters, male Sprague-Dawley rats were given 1 mL/Kg of the dosing solution (delineated in the table below) containing a test article (0.5 mg/kg) per kg of body weight via slow intravenous injection into an indwelling jugular vein catheter in a discrete PK study. Alternatively, male Sprague-Dawley rats were given 1 mL/Kg of the dosing solution containing three test articles (0.5 mg/kg each, 1.5 mg/kg total) per kg of body weight via slow intravenous injection into an indwelling jugular vein catheter in a cassette PK study. Diet and water was provided ad libitum without exception. At specified time following a single intravenous bolus injection, approximately 100 μL of whole blood was collected from indwelling catheter in jugular vein. The blood was stored frozen at −20° C. before an LC-MS/MS method was used to quantitate drug levels in the blood. All pharmacokinetic (PK) parameters were derived from concentration-time data by non-compartmental analyses using WinNonlin Phoenix version 6.4 (Certara, St. Louis, Mo.). For the intravenous dose, the concentration of unchanged compound at time 0 was calculated based on a log-linear regression of first two data points to back-extrapolate C(0). The area under the concentration-time curve was calculated using the linear trapezoidal rule.
Data in Table 2 collected using the assay of Biological Example 2 compares compounds from the present invention to other sGC activators previously disclosed PCT/IB2015/055006 filed Jul.

[3] = CHO cellular assay, as repeated in Table 2, read-out: EC50 from biological Example #1
[4] = i.v. 0.5 mg/kg each, three test articles, Cassette - E (10% propylene glycol, 10% Solutol HS15, PBS)
[5] = i.v. 0.5 mg/kg, Discrete - D (10% propylene glycol, 10% Solutol HS15, PBS)
[6] = CHO GUCY clone 8E10, assay buffer with 1 mM IBMX, 20 uM ODQ, 1 h at room temperature, cGMP HTRF, quantification limit 0.0005 μM, read-out: Mean EC50

Structure (SMILES)	EC50 [1, 3] [nM]	clearance [2, 5] [mL/min/kg]	EC50 [1, 6] [nM]	other results
Cc1cc(C2CCN(C(=O)C3CC3)CC2)ccc1NC1CCc2cccc(-c3cccc(-n4ncc(C(=O)O)c4C)c3)c21 (single isomer, unassigned; (+)) [(+)-1-(3-(3-((4-(1-(cyclopropanecarbonyl)piperidin-4-yl)-2-methylphenyl)amino)-2,3-dihydro-1H-inden-4-yl)phenyl)-5-methyl-1H-pyrazole-4-carboxylic acid, reference compound]	< 0.5	–	–	clearance ([2]; i.v. 0.5 mg/kg each, three test articles, Cassette - F (20% propylene glycol, 10% Solutol HS15, PBS)): 24.9 mL/min/kg
Cc1cc(C2CCN(C(=O)C3CC3)CC2)ccc1CC1CCc2cccc(-c3cccc(-n4ncc(C(=O)O)c4C)n3)c21 (single isomer, unassigned; (+)) [(+)-1-(6-(3-(4-(1-(cyclopropanecarbonyl)piperidin-4-yl)-2-methylbenzyl)-2,3-dihydro-1H-inden-4-yl)pyridin-2-yl)-5-methyl-1H-pyrazole-4-carboxylic acid]	< 0.5	25.6	–	clearance [2, 4]: 97.2 mL/min/kg
CCc1cc(OC2CCc3cccc(-c4cccc(-n5ncc(C(=O)O)c5CC)n4)c32)ccc1C1CCN(C(=O)C2CC2)CC1 (single isomer, unassigned; (+)) [(+)-1-(6-(3-(4-(1-(cyclopropanecarbonyl)piperidin-4-yl)-3-ethylphenoxy)-2,3-dihydro-1H-inden-4-yl)pyridin-2-yl)-5-ethyl-1H-pyrazole-4-carboxylic acid]	< 0.5	–	–	clearance [2, 4]: 6.6 mL/min/kg; clearance ([2]; i.v. 0.5 mg/kg, Discrete - G (20% propylene glycol, 50% of 20% Solutol HS15, water)): 14 mL/min/kg
CCc1cc(NC2CCc3cccc(-c4cccc(-n5ncc(C(=O)O)c5CC)n4)c32)ccc1C1=CCN(C(=O)C2CC2)CC1 (single isomer, unassigned; (+)) [(+)-1-(6-(3-((4-(1-(cyclopropanecarbonyl)-1,2,3,6-tetrahydropyridin-4-yl)-3-ethylphenyl)amino)-2,3-dihydro-1H-inden-4-yl)pyridin-2-yl)-5-ethyl-1H-pyrazole-4-carboxylic acid, reference compound]	< 0.5	38	–	–
Cc1cc(C2CCN(C(=O)[C@H](C)O)CC2)ccc1NC1CCc2cccc(-c3cccc(-n4ncc(C(=O)O)c4C)n3)c21 (single isomer, unassigned; (+)) [reference compound]	< 0.5	–	–	clearance [2, 4]: 48.3 mL/min/kg
CCc1cc(O[C@H]2CCc3cccc(-c4cccc(-n5ncc(C(=O)O)c5OC)c4)c32)ccc1C1CCN(C(=O)C2CC2)CC1 [Example 5, (+)-(S)-1-(3-(3-(4-(1-(Cyclopropanecarbonyl)piperidin-4-yl)-3-ethylphenoxy)-2,3-dihydro-1H-inden-4-yl)phenyl)-5-methoxy-1H-pyrazole-4-carboxylic acid]	< 0.5	89	< 0.5	–
CCc1cc(C[C@H]2CCc3cccc(-c4cccc(-n5ncc(C(=O)O)c5OC)n4)c32)ccc1C1CCN(C(=O)[C@H](C)O)CC1 [Example 24, (+)-(R)-1-(6-(3-(3-Ethyl-4-(1-((S)-2-hydroxypropanoyl)piperidin-4-yl)benzyl)-2,3-dihydro-1H-inden-4-yl)pyridin-2-yl)-5-methoxy-1H-pyrazole-4-carboxylic acid]	–	–	< 0.5	–

Now from value to compound, other results behind:

EC50 [1, 3] [nM]	clearance [2, 5] [mL/min/kg]	EC50 [1, 6] [nM]	Structure (SMILES)	other results
< 0.5	–	< 0.5	CCc1cc(NC2CCc3cccc(-c4cccc(-n5ncc(C(=O)O)c5OC)c4)c32)ccc1C1CCN(C(=O)[C@H](C)O)CC1 (single isomer, unassigned; (+)) [Example 4A]	clearance ([2]; i.v. 0.5 mg/kg, Discrete - C (20% PEG 300, 10% Solutol HS15, PBS)): > 100 mL/min/kg
7	98	7	CCc1cc(NC2CCc3cccc(-c4cccc(-n5ncc(C(=O)O)c5N)n4)c32)ccc1C1CCN(C(=O)C2CC2)CC1 (single isomer, unassigned; (+)) [Example 18A, (+)-5-Amino-1-(6-(3-((4-(1-(cyclopropanecarbonyl)piperidin-4-yl)-3-ethylphenyl)amino)-2,3-dihydro-1H-inden-4-yl)pyridin-2-yl)-1H-pyrazole-4-carboxylic acid]	–
< 0.6	–	< 0.6	CCc1cc(C[C@H]2CCc3cccc(-c4cccc(-n5ncc(C(=O)O)c5OC)c4)c32)ccc1C1CCN(C(=O)C2CC2)CC1 [Example 1A, (+)-(R)-1-(3-(3-(4-(1-(Cyclopropanecarbonyl)piperidin-4-yl)-3-ethylbenzyl)-2,3-dihydro-1H-inden-4-yl)phenyl)-5-methoxy-1H-pyrazole-4-carboxylic acid]	clearance ([2]; i.v. 0.5 mg/kg, Discrete - A (10% propylene glycol, 1 eq NaOH, 25% of 20% Solutol HS15, PBS)): > 100 mL/min/kg
< 0.5	–	< 0.5	CCc1cc(N[C@H]2CCc3cccc(-c4cccc(-n5ncc(C(=O)O)c5OC)c4)c32)ccc1C1CCN(C(=O)C2CC2)CC1 [Example 3A, (+)-(S)-1-(3-(3-((4-(1-(Cyclopropanecarbonyl)piperidin-4-yl)-3-ethylphenyl)amino)-2,3-dihydro-1H-inden-4-yl)phenyl)-5-methoxy-1H-pyrazole-4-carboxylic acid]	clearance ([2]; i.v. 0.5 mg/kg, Discrete - B (20% PEG 300, 1 eq NaOH, 10% Solutol HS15, PBS)): > 100 mL/min/kg
